≈ marks a conversion by molar mass, not a printed value.
Legend:
[1] = Inhibition of recombinant full-length C-terminal His6-tagged Escherichia coli DNA topoisomerase 4 subunit ParC/ParE using kinetoplast DNA as substrate preincubated for 30 mins followed by substrate addition and measured after 1 hr in presence of ATP by size exclusion chromatography
[2] = Dose normalized AUC in rat at 10 mg/kg, po measured up to 24 hrs by LC-MS/MS analysis; assay type: ADME, organism-based; details: in vivo
[3] = Dose normalized Cmax in rat at 10 mg/kg, po measured up to 24 hrs by LC-MS/MS analysis; assay type: ADME, organism-based; details: in vivo
[4] = Tmax in rat at 10 mg/kg, po measured up to 24 hrs by LC-MS/MS analysis; assay type: ADME, organism-based; details: in vivo
Escherichia coli [5] = assay: Bacteriostatic activity against Escherichia coli ATCC 25922 infected in mouse model of neutropenic thigh infection assessed as static dose compound administered subcutaneously 2 hrs post infection and measured after 24 hrs by serial dilution method; assay type: functional
in vivo = details: mouse, po, 10 mg/kg
Escherichia coli [6] = assay: Antibacterial activity against wild type Escherichia coli ATCC 25922 at pH 7.4 by CLSI-based broth microdilution assay; assay type: functional
Pseudomonas aeruginosa [7] = assay: Antibacterial activity against wild type Pseudomonas aeruginosa PAO1 K767 by CLSI-based broth microdilution assay; assay type: functional
[8] = Solubility of the compound in pH 7 PBS incubated for 24 hrs under gently shaking condition by UPLC/UV/CLND/MS analysis; assay type: physicochemical; details: PBS, pH 7
[9] = n-Octanol-PBS buffer partition coefficient, log D of the compound at pH 7.4 after overnight incubation by LC/UV/qTOF analysis; assay type: physicochemical
Klebsiella pneumoniae = assay: Antibacterial activity against wild type Klebsiella pneumoniae ATCC 43816 by CLSI-based broth microdilution assay; assay type: functional
Pseudomonas aeruginosa [10] = assay: Antibacterial activity against Pseudomonas aeruginosa K1542/K767 harboring MexB/MexXY deletion mutant by CLSI-based broth microdilution assay; assay type: functional
Pseudomonas aeruginosa [11] = assay: Antibacterial activity against Pseudomonas aeruginosa NB52023 harboring gyrA T83I mutant/ParC S87L mutant by CLSI-based broth microdilution assay; assay type: functional
Escherichia coli [12] = assay: Antibacterial activity against Escherichia coli BW25113/JW0451-2 harboring AcrB deletion mutant by CLSI-based broth microdilution assay; assay type: functional
[13] = Protein binding in CD1 mouse plasma at 10 uM incubated for 4 hrs under shaking condition by LC-MS/MS analysis; assay type: ADME, cell-free; details: read-out: PPB (converted)
[14] = Protein binding in Sprague-Dawley rat plasma at 10 uM incubated for 4 hrs under shaking condition by LC-MS/MS analysis; assay type: ADME, cell-free; details: read-out: PPB (converted)
[15] = Protein binding in pooled human plasma at 10 uM incubated for 4 hrs under shaking condition by LC-MS/MS analysis; assay type: ADME, cell-free; details: read-out: PPB (converted)
[16] = molecular target: Voltage-gated inwardly rectifying potassium channel KCNH2 (Homo sapiens, UniProt Q12809); assay: Inhibition of human ERG expressed in CHOK1 cells by QPatch automated patch-clamp assay; assay type: cell-based, CHO-K1
[17] = Efflux ratio of apparent permeability in human Caco2 cells at 10 uM after 2 hrs by LC-MS/MS analysis; assay type: ADME, cell-based; details: Caco-2
[18] = Intrinsic clearance in rat liver microsomes at 1 uM in presence of NADPH and measured up to 30 mins by LC-MS/MS analysis; assay type: ADME, Microsome; details: read-out: CLH
[19] = Intrinsic clearance in human liver microsomes at 1 uM in presence of NADPH and measured up to 30 mins by LC-MS/MS analysis; assay type: ADME, Microsome; details: read-out: CLH
Escherichia coli [20] = assay: Antibacterial activity against wild type Escherichia coli ATCC 25922 at pH 5.8 by CLSI-based broth microdilution assay; assay type: functional
Escherichia coli [21] = assay: Ratio of MIC for antibacterial activity against wild type Escherichia coli ATCC 25922 at pH 5.8 to MIC for antibacterial activity against wild type Escherichia coli ATCC 25922 at pH 7.4; assay type: functional
[22] = Selectivity ratio of MIC for wild type Escherichia coli ATCC 25922 to MIC for Escherichia coli BW25113/JW0451-2 harboring AcrB deletion mutant; assay type: functional

Chain of Voltage-gated inwardly rectifying potassium channel KCNH2 (Q12809 whole entry): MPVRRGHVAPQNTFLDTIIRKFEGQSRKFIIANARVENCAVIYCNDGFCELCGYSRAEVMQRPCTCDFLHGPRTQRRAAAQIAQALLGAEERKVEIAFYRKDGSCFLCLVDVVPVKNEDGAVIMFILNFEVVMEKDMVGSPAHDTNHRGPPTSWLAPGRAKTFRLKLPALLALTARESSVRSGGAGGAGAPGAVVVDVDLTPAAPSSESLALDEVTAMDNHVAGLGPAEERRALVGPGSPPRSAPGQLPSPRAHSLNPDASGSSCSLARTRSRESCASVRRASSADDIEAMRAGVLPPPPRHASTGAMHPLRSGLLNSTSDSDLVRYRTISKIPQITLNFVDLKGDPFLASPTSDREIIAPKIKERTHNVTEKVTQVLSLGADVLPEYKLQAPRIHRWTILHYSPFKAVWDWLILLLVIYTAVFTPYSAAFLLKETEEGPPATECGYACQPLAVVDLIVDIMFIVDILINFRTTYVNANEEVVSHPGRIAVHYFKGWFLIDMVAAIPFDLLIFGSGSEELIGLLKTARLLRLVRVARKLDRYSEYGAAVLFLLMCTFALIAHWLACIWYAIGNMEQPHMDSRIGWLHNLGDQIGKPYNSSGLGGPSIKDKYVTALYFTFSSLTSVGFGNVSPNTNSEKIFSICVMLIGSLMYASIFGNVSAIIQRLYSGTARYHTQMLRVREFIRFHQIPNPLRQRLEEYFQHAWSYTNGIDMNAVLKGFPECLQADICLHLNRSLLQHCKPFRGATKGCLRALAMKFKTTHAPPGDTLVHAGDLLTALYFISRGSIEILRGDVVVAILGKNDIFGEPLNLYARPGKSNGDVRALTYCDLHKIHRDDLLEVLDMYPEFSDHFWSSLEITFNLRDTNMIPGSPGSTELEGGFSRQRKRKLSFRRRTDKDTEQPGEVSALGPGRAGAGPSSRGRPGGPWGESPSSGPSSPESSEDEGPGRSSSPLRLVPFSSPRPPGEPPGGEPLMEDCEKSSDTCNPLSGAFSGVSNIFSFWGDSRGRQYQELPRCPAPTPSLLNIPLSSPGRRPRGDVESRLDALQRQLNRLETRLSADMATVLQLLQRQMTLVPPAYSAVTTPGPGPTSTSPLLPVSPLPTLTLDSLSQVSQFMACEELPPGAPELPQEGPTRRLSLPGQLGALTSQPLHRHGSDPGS

For `O=C(O)c1cn(C2CC2)c2cc(N3CCNCC3)c(F)cc2c1=O` [CIPROFLOXACIN], the IC50 [1] was 2.71 µM, the AUC/dose [2] was 0.29 µM·h/mg/kg and the Cmax/dose [3] was 0.14 µM/mg/kg. The Tmax [4] was 30 min, the Activity (Escherichia coli [5]) was 6.4 mg/kg/day and the Tmax at 24 h (in vivo) was 15 min.
`Cc1c(N2CC[C@@H]([C@H](C)N)C2)c(F)cc2c(CN)cc(=O)n(C3CC3)c12` gave an MIC (Escherichia coli [6]) of 1 µg/mL (≈ 2.79 µM), an MIC (Pseudomonas aeruginosa [7]) of 2 µg/mL (≈ 5.58 µM) and a solubility at 24 h [8] greater than 555 µg/mL. It also gave a logD [9] of -0.29, an MIC (Klebsiella pneumoniae) of 4 µg/mL (≈ 11.2 µM) and an MIC (Pseudomonas aeruginosa [10]) of 0.5 µg/mL (≈ 1.39 µM). For the same compound, the MIC (Pseudomonas aeruginosa [11]) was 2 µg/mL (≈ 5.58 µM), the MIC (Escherichia coli [12]) was 0.06 µg/mL (≈ 0.167 µM) and the fraction unbound at 4 h, 10 µM [13] was 0.44. The fraction unbound at 4 h, 10 µM [14] was 0.82, the fraction unbound at 4 h, 10 µM [15] was 0.83 and the IC50 [16] was greater than 300 µM. The efflux ratio at 2 h, 10 µM [17] was 18, the microsomal CLint at 1 µM [18] was less than 7.7 µL/min/mg and the microsomal CLint at 1 µM [19] was 14 µL/min/mg. The MIC (Escherichia coli [20]) was greater than 32 µg/mL, the Ratio (Escherichia coli [21]) was “>=64” and the Selectivity ratio [22] was 16.

Source: ChEMBL document CHEMBL4616724, “Topoisomerase Inhibitors Addressing Fluoroquinolone Resistance in Gram-Negative Bacteria” (J Med Chem, 2020)
